We go through twelve compounds from patent US11866416B2, “Streptococcus mutans glucosyl transferase inhibitors for dental caries therapy” (UAB Research Foundation, priority 2018, dated 2024).

Series [1] relates to S. mutans biofilm. The series is described as follows: S. mutans biofilm formation and inhibition assay (96-well plates, crystal violet). The series is classed as cell-based, Streptococcus mutans. The conditions noted are these: for IC50: Streptococcus mutans.
In series [2] the test system is S. mutans Gtfs. Nature of the series: Gtf zymographic assay with SDS-PAGE. It is filed as biochemical, Streptococcus mutans. The conditions noted are these: for % Inhibition of GTFs at 10 μM: S. mutans GTF zymogram assay, NI = no inhibition up to 10 μM; for Gtf enzyme inhibitory activity, glucan bands in zymogram / production of Gtfs, protein level on SDS-PAGE: 50 μM added to cultures. On the procedure:
A well-established zymographic assay was used to determine enzymatic activity of Gtfs (Mattos-Graner et al. (2004) J. Clin. Microbiol. 42, […]). In brief, overnight S. mutans UA159 cultures were diluted 1:100 in fresh 5 mL THB with 50 μL of selective compounds at a series of concentrations. Treated bacteria were grown to OD470 of 1.0, and spun down by centrifugation at 4° C., and culture supernatants were collected and filtered through a 0.22-μm-pore-size filter membrane to remove residual bacterial cells and dialyzed at 4° C. against 0.02 M sodium phosphate buffer (pH 6.8), with 10 μM phenylmethylsulfonyl fluoride (PMSF), followed by a second dialysis against 0.2 mM sodium phosphate containing 10 μM PMSF. After dialysis, 4 mL of samples were concentrated to 40 μL by 100K Amicon Ultra-4 centrifugal filter (Merck Millipore Ltd.). For electrophoresis and zymographic analysis, 10 μL of each concentrated culture supernatant was applied to 8% SDS-PAGE in duplicate. One gel was used for protein staining with Coomassie blue dye, while the other one was subjected to zymographic assay as described (Mattos-Graner et al. (2004) J. Clin. Microbiol. 42, […]). The resultant white opaque glucan bands were visualized against a black background.
Inhibition of the activity of Gtfs determined by zymographic assays. Well established zymographic assay was used to determine enzymatic activity of Gtfs. In brief, overnight S. mutans UA159 cultures were diluted 1:100 in fresh 5 mL THB. Bacteria were grown to OD470 of 1.0, and spun down by centrifugation at 4° C. and culture supernatants were collected and filtered through a 0.22-μm-pore-size filter membrane to remove residual bacterial cells and dialyzed at 4° C. against 0.02 M sodium phosphate buffer (pH 6.8), with 10 μM phenylmethylsulfonyl fluoride (PMSF), followed by a second dialysis against 0.2 mM sodium phosphate containing 10 μM PMSF. After dialysis, 4 mL of samples were concentrated to 40 μL by 100K Amicon Ultra-4 centrifugal filter (Merk Millipore Ltd.). For electrophoresis and zymographic analysis, 10 μL of each concentrated culture supernatant was applied to 8% SDS-PAGE in duplicate. One gel was used for protein staining with Coomassie blue dye, while the other one was subjected to zymographic assay. For zymogram analysis, following electrophoretic separation, gels were washed twice for 15 min each with renaturing buffer containing 2.5% Triton X-100. Gels were then incubated for 18 h at 37° C. with 0.2 M sodium phosphate buffer (pH 6.5) containing 0.2% dextran T70, 5% sucrose, and varying concentrations of the small molecule inhibitors. The reactions were stopped by washing gels with distilled water at 4° C. for 10 min, and digital images of the resultant white opaque glucan bands were visualized against a black background and captured using a digital camera.
Inhibition of the activity of Gtfs determined by zymographic assays. A well-established zymographic assay was used to determine enzymatic activity of Gtfs (Mattos-Graner, R. O., Napimoga, M. H., Fukushima, K., Duncan, M. J., Smith, D. J., J Clin Microbiol, 2004, 42, 4586). In brief, overnight S. mutans UA159 cultures were diluted 1:100 in fresh 5 mL THB with 50 μL of selective compounds at a series of concentrations. Treated bacteria were grown to OD470 of 1.0, and spun down by centrifugation at 4° C., and culture supernatants were collected and filtered through a 0.22-μm-pore-size filter membrane to remove residual bacterial cells and dialyzed at 4° C. against 0.02 M sodium phosphate buffer (pH 6.8), with 10 μM phenylmethylsulfonyl fluoride (PMSF), followed by a second dialysis against 0.2 mM sodium phosphate containing 10 μM PMSF. After dialysis, 4 mL of samples were concentrated to 40 μL by 100K Amicon Ultra-4 centrifugal filter (Merk Millipore Ltd.). For electrophoresis and zymographic analysis, 10 μL of each concentrated culture supernatant was applied to 8% SDS-PAGE in duplicate. […]

The target in series [3] is GtfB catalytic domain (Streptococcus mutans serotype c (strain ATCC 700610 / UA159), UniProt P08987). The series is described as follows: OctetRed96 binding kinetics, GtfB. The following applies: 1:1 binding model. The source says:
To determine if the inhibition is attributed by the binding of the lead compound to the enzymes, the OctetRed96 system was used to characterize protein-small molecule binding kinetics. The his-tagged catalytic domains of GtfB and GtC were immobilized separately onto an anti-penta-HIS (HIS1K) biosensor which consists of high affinity, high specificity penta-his antibody pre-immobilized on a fiber optic biosensor. This sensor was then exposed to varying concentrations of #G43.
Expression and purification of GtfB and GtfC catalytic domains. The DNA fragment coding for either GtfB catalytic (residues 268 aa-1074 aa) or GtfC-catalytic (residues 295 aa-1103 aa) was PCR amplified with primer sets of GtfB-BamH1-F and GtfB-Xho1-R, GtfC-BamH1-F and GtfC-Xhol1-R respectively using S. mutans genomic DNA as a template. Each amplified fragment was cloned into pET-sumo vector respectively and transformed in Escherichia coli BL21(DE3). The recombinant strain grown to OD600=0.8 in LB medium was induced with 0.1 mM IPTG at 18° C. overnight. Cell lysates prepared form the overnight grown E. coli cells were subjected to protein purification using HiTrap™ Column (Ni^2+ affinity) followed by gel filtration experiments as described (Zhu, F. et al. Structural and functional analysis of a new subfamily of glycosyltransferases required for glycosylation of serine-rich streptococcal adhesins. The Journal of biological chemistry 286, 27048-27057, doi:10.1074/jbc.M110.208629 (2011); Zhang, H. et al. The highly conserved domain of unknown function 1792 has a distinct glycosyltransferase fold. Nature communications 5, 4339, doi:10.1038/ncomms5339 (2014)).
Octet Red analysis. Octet full kinetic binding analysis was performed for binding of #G43 to GtfB and GtfC. The rate constant, KD, was determined using the Octet® Red96 system (ForteBio, Menlo Park, Calif.). Phosphate buffer with 3.5% (w/v) DMSO was used. The proteins were captured on dip-and-read Anti-Penta-HIS (HIS1K) Biosensor. These consist of high affinity, high specificity Penta-His antibody from Qiagen pre-immobilized on a fiber optic biosensor. The binding of #G43 at 3-fold serial dilutions in phosphate buffer from 200, 66.6, 22.2, 7.4, 2.5 to 0 μM was assessed. The ForteBio Octet analysis software (ForteBio, Menlo Park, Calif.) was used to generate the sensorgram and the accuracy of the analysis.
OctetRed analysis. […] GtfC and GtfB were purified. The Octet® Red96 system (ForteBio, Menlo Park, Calif.) was used to determine the rate constant, KD. […] Sensorgrams and the accuracy of the analysis was calculated using the ForteBio OctetRed analysis software (ForteBio, Menlo Park, Calif.).

Series [4] deals with S. mutans. Nature of the series: microbe, parasite or virus in culture. It is filed as cell-based, Streptococcus mutans. The following applies: for MIC50 / IC50: Streptococcus mutans; for MIC50: read-out: Growth Inhibition MIC50; for IC50: Table 7, synthesized analogs of compound 9, read-out: Growth IC50; for SI (selectivity index): Table 7, growth IC50 value divided by biofilm IC50 value. The method, boiled down: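 Mid-exponential cultures (OD470 0.6) in THB were exposed to compound concentrations for 16 h, with growth read at OD470 and normalised to 1% DMSO control (100%). CFU/mL were also counted after 24 h at 37 °C and compared with the DMSO control.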

Series [5] has as its system S. mutans colonization. The series is described as follows: Sucrose-dependent Drosophila colonization model. The series is classed as in vivo. The following applies: chalcones; 100 μM or 50 μM.
Method: Briefly, Gfp tagged S. mutans bacteria were infected into flies along with the treatment appropriate compound at 100 μM in a feeding-assay.
Mid-log phase THB cultures of Gfp-tagged (green fluorescent protein) S. mutans UA159 were spun down and resuspended in a solution containing 5% sucrose and 50 μM of the compound. 100 μL of resuspended cells were spotted onto a sterile filter that was placed on the surface of 5 mL of solidified 5% sucrose agar in a plastic vial. The vials were allowed to dry at room temperature for 30 minutes prior to addition of flies. Male Canton S flies (1-3 days old) were treated with antibiotics for 2 days and starved for 3 hours prior to the addition to vials supplied with S. mutans (10 flies per vial). The colonization of flies by Gfp-tagged strains were analyzed by Nikon elipse 90i microscope, equipped with an Epi-fluorescence and NIS elements AR imaging system.
The intensity of the fluorescence was measured in the guts of the flies fed with the Gfp tagged bacteria after 7 days of infection.
Cultures of Gfp-tagged (green fluorescent protein) S. mutans UA159 grown to middle log phase were spun down and re-suspended in a solution containing 5% sucrose and 50 μM of each compound. 100 μL of re-suspended cells were aliquoted onto a sterile filter that was placed on the surface of 5 mL of solidified 5% sucrose agar in a plastic vial. Upon the drying of the vials at room temperature for 30 min, the flies were introduced to the vessels. Male Canton S flies (1-3 days old) were treated with antibiotics for 2 days and starved for 3 h before the addition to vials supplied with S. mutans (10-14 flies per vial). Nikon elipse 90i microscope, equipped with an Epi-fluorescence and NIS elements AR imaging system was used to analyze the colonization of flies by Gfp-tagged strains.
The mark [6] stands for this setting: Table 2, >300 = no inhibition up to 300 μM.
The mark [7] stands for this setting: Table 1, >500 = no inhibition up to 500 μM, read-out: Biofilm Inhibition IC50.
[8] abbreviates: Table 2, read-out: Biofilm Inhibition IC50.
Where [9] appears, read: Table 5, >500 = no inhibition up to 500 μM, read-out: Biofilm Inhibition IC50.
[10] abbreviates: Table 7, synthesized analogs of compound 9, read-out: Biofilm IC50.

Where two headings read alike, the source gives them in different places. Marks after values point to notes of the source that are not given here.

By Kd is commonly meant a measure of binding affinity in units of concentration. In general, IC50 refers to the point on the concentration scale where inhibition reaches its midpoint. For orientation: melting point means the temperature, or range, at which the solid turns liquid.

Chain of GtfB catalytic domain (P08987 268-1074 limits assumed): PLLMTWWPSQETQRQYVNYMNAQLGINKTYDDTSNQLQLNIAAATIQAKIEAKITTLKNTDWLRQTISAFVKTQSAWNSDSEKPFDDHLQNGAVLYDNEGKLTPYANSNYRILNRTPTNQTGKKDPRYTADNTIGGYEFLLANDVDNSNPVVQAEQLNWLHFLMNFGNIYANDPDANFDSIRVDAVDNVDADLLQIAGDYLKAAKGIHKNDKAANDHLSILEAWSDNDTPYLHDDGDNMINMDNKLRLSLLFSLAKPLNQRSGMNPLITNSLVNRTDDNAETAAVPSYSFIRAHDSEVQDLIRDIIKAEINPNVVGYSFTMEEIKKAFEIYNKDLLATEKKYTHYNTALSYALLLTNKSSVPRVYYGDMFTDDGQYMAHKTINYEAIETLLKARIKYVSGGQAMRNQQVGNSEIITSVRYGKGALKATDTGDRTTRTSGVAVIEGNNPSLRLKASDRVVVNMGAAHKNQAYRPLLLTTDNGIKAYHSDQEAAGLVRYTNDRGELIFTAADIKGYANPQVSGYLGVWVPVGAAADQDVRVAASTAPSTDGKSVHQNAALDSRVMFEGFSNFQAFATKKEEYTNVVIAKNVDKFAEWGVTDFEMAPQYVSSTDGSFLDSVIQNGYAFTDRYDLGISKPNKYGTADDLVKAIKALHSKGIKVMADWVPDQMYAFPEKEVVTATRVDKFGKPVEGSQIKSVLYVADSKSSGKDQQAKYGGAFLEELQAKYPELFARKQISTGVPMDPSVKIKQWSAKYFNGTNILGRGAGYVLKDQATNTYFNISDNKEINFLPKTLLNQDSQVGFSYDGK

`O=C(Nc1ccccc1)c1cc2cc([N+](=O)[O-])ccc2s1` [#G43-D]: the “inhibition of S. mutans biofilms, biofilm assay and fluorescence microscopy” value in series [1] (concentrations up to 200 μM) is “did not inhibit”. In addition, the “glucan bands in zymographic assay” value in series [2] (50 μM, Gtfs from S. mutans UA159 supernatants) is “significantly reduced the ability to inhibit the glucan production”. In series [3], the affinity, expressed as Kd, was 68 µM.
In the case of `NC(=O)c1ccccc1NC(=O)c1cc2cc([N+](=O)[O-])ccc2s1` [Compound 3A], the MIC50 in series [4] (setting [6]) was greater than 300 µM. Besides, the IC50 in series [1] (setting [7]), in series [1] (setting [8]) and in series [1] (setting [9]) was 16.7 µM in each case. Besides, the “% Inhibition of GTFs at 10 μM” value in series [2] stood at 30.3%.
`NC(=O)c1ccccc1NC(=O)c1cnc2ccccc2c1` [Compound 3I]: in series [4] (setting [6]), the MIC50 is greater than 300 µM. Moreover, the IC50 in series [1] (setting [7]), in series [1] (setting [8]) and in series [1] (setting [9]) was 15.3 µM in each case. Besides, the “% Inhibition of GTFs at 10 μM” value in series [2] was found to be 36.6%.
For `NC(=O)c1ccccc1NC(=O)c1cc2cc(N)ccc2s1` [Compound 3M], the “Growth Inhibition MIC50” value in series [4] (setting [6]) is given as >300^b μM. Besides, the IC50 in series [1] (setting [7]) and in series [1] (setting [9]) was 10.2 µM each time. For the same compound, the “% Inhibition of GTFs at 10 μM” value in series [2] came out at 42.2%.
Consider `O=C(Nc1ccccc1C(=O)O)c1cc2cc([N+](=O)[O-])ccc2s1` [Compound 3N], for which the MIC50 in series [4] (setting [6]) was greater than 300 µM. Also, the IC50 in series [1] (setting [7]), in series [1] (setting [8]) and in series [1] (setting [9]) was 89.3 µM each time. Further, in series [2], the “% Inhibition of GTFs at 10 μM” value turned out to be 30.1%.
For the compound `COC(=O)c1ccc(NC(=O)c2cc3cc([N+](=O)[O-])ccc3s2)cc1` [Compound 3O], the MIC50 in series [4] (setting [6]) was greater than 300 µM. The IC50 in series [1] (setting [7]), in series [1] (setting [8]) and in series [1] (setting [9]) was 9.6 µM throughout. In addition, the “% Inhibition of GTFs at 10 μM” value in series [2] was 54.8%.
As to `O=C(/C=C/c1ccc(O)cc1O)c1cccc(O)c1` [Compound 9a, (E)-3-(2,4-Dihydroxyphenyl)-1-(3-hydroxyphenyl)-2-propen-1-one], the melting point was 73 to 75 °C. For the same compound, in series [4], the “selectivity (index / fold) for biofilm over growth” value is “about 10”, the IC50 amounted to 639 ± 25 µM and the “SI (selectivity index)” value was 9.39. Also, the IC50 in series [1] (setting [10]) came out at 68 ± 3 µM. Besides, the IC50 in series [1] (read-out: S. mutans biofilm IC50) is 68 µM. The “fluorescence of Gfp tagged S. mutans in fly guts after 7 days” value in series [5] is reported as “marked reduction in fluorescence”. Also, in series [2], the “Gtf enzyme inhibitory activity, glucan bands in zymogram” value (“Gtf enzyme inhibitory activity” for short) is on record as “did not exhibit a drastic effect”.
Compound `O=C(/C=C/c1ccc(O)cc1O)c1ccc(O)cc1` [Compound 18b, (E)-3-(2,4-Dihydroxyphenyl)-1-(4-hydroxyphenyl)-2-propen-1-one] had a melting point of 185 to 188 °C. Also, in series [4], the IC50 worked out at 1060 ± 118 µM and the “SI (selectivity index)” value amounted to 6.6. The IC50 in series [1] (setting [10]) stood at 162 ± 21 µM. For the same compound, in series [2], the “Gtf enzyme inhibitory activity” value is listed as “did not exhibit a drastic effect” and the “production of Gtfs, protein level on SDS-PAGE” value (“production of Gtfs” below) is reported as “showed an inhibitory effect on the production of Gtfs”.
As for `O=C(/C=C/c1cc(O)c(O)cc1O)c1ccccc1O` [Compound 18c, (E/Z)-1-(2-hydroxyphenyl)-3-(2,4,5-trihydroxyphenyl)prop-2-en-1-one], in series [4], the “selectivity (index / fold) for biofilm over growth” value is given as 1.5, the IC50 is 323 ± 36 µM and the “SI (selectivity index)” value was 1.5. For the same compound, the IC50 in series [1] (setting [10]) amounted to 224 ± 23 µM. The “production of Gtfs” value in series [2] is “largest inhibition”.
On to `O=C(/C=C/c1cc(O)c(O)cc1O)c1ccc(O)cc1` [Compound 18d, (E)-1-(4-hydroxyphenyl)-3-(2,4,5-trihydroxyphenyl)prop-2-en-1-one], for which, in series [4], the IC50 was 376 ± 6 µM and the “SI (selectivity index)” value is on record as 4.9. In addition, in series [1] (setting [10]), the IC50 is 76 µM. Besides, in series [2], the “Gtf enzyme inhibitory activity” value is reported as “some weak inhibition of the GtfC band”.
Compound `O=C(/C=C\c1ccc(O)cc1O)c1ccc(O)cc1` [Compound 21b, (Z)-3-(2,4-Dihydroxyphenyl)-1-(4-hydroxyphenyl)-2-propen-1-one] displayed a melting point of 185 to 187 °C. Besides, in series [4], the IC50 was found to be 782 ± 96 µM and the “SI (selectivity index)” value was found to be 10.1. In series [1] (setting [10]), the IC50 was determined as 77 ± 8 µM. Moreover, in series [2], the “Gtf enzyme inhibitory activity” value is given as “exhibit the best inhibitory effects” and the “production of Gtfs” value is recorded as “showed an inhibitory effect on the production of Gtfs”.
`C(=C\c1ccccc1)/c1ccccc1` [E-stilbene, reference compound]: in series [2] (stilbenes, versus DMSO control), the “glucan production in zymogram assay” value is recorded as “no glucan inhibition”.
